From US10285986B2, “Compounds and anti-tumor NQO1 substrates” (The Board of Trustees of the University of Illinois, priority 2011, dated 2019)
Converted amounts (≈) assume the structure as drawn. “And” between values parts separate entries of the source, which are not always exact repeats. Equal values may be shown once. Read-outs that look alike come from different tables or passages of the source.

Tests used:
healthy mice = assay: in vivo; details: mouse, 5 days
Excerpt: (§1) Because of the difficulty of repeated tail vein injections in mice, our group is using IP administration of compound.
(§2) All of these derivatives are currently being assessed for their maximum tolerated dose (MTD) in healthy mice. Compounds are formulated in HPβCD and delivered by IP injection to two mice once daily for five days.

[1] = Maximum tolerated dose in mice; details: mouse, ip
Excerpt: as §1, §2

NQO1 = NQO1 (Homo sapiens, UniProt P15559); assay: NQO1 enzymatic measurements in vitro; assay type: biochemical; details: 1 μM substrate
Chain of NQO1 (P15559 whole entry): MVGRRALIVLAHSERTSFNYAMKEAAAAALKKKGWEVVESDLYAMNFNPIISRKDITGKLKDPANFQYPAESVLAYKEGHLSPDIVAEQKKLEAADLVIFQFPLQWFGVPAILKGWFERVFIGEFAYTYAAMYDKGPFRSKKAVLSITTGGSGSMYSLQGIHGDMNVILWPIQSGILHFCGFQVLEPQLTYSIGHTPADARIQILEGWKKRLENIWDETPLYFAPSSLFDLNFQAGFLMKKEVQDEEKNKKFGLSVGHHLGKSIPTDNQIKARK
Description: As further evidence that the activity of these DNQ derivatives is dependent on their ability to be reduced by NQO1, full enzymatic measurements in vitro were performed. We found a strong correlation between catalytic efficiency of substrates in vitro and their cell culture toxicity. […] This provides strong evidence that the cytotoxicity of DNQ and its derivatives are dependent primarily upon the activity of NQO1 within the cell.

MCF-7 cells = assay: Cytotoxicity to MCF-7 cells with or without 25 μM dicoumarol (sulforhodamine B assay); assay type: cell-based, human
Description: The NQO1-dependent cytotoxicity of the first set of derivatives was determined in MCF-7 cells which express high levels of NQO1. Cells were exposed to DNQ for 2 hours in the presence or absence of 25 μM DIC. The media was then removed and cells were washed once with media then fresh media was added and the cells were incubated for 72 hours. Cell death was assessed using the sulforhodamine B assay previously described. […] Substitution off the nitrogen appeared well tolerated (4-14 and 4-15).
The DNQ derivatives synthesized were assayed for their toxicity to MCF-7 cells with or without DIC. The data from these experiments is organized in Table 4.2. […] This tolerance of sterically-demanding substituents corresponds with a flexible and promiscuous NQO1 active site. The poor activity of hydroxyl derivative 4-41 may be a result of either poor binding with the largely hydrophobic NQO1 active site or with an excessively strong substrate-enzyme interaction because of hydrogen bonding.

[2] = Solubility in organic solvents; assay type: physicochemical; details: Table 1; for solubility: organic solvent or mixture, thermodynamic from solid, THF
[3] = Solubility in 20% HPβCD solution (pH modulation protocol); assay type: physicochemical; details: 20% HPβCD; for solubility: 20% HPβCD in pH 7.4 PBS, pH 7.4, aqueous with cosolvent or surfactant or cyclodextrin, thermodynamic from solid, Table 4.3
Description: The protocol for formulating DNQ compounds in HPβCD is as follows: the DNQ compound is slurried in a 20% solution of HPβCD in pH 7.4 PBS and the pH is then increased by the addition of 10 M NaOH to induce dissolution of the DNQ compound. The pH is returned to pH 7.5-8.0 by the careful addition of 1 M HCl. A 3.3 mM solution of the DNQ compound can be made by this method which is stable at least 24 hours. This represents a 30-fold increase in solubility of DNQ over PBS alone.
Although we were pleased to find active derivatives of DNQ that were up to 4-fold more soluble in water—sufficiently soluble for continuous IV infusion for human administration—this level of solubility was insufficient for animal studies by bolus injection. […] We used the same pH modulation protocol outlined for DNQ described in the specification above. The results are organized in Table 4.3 and FIG. 8. While all compounds were more soluble in HPβCD than in buffer alone, the fold increase in solubility varied widely.

[4] = Solubility in organic solvents; assay type: physicochemical; details: for solubility: organic solvent or mixture, thermodynamic from solid
Description: The solubility of DNQ derivatives in organic solvents was determined by measuring the amount of a given solvent required to dissolve a known amount of compound. Solvent was added to the compound in 50 μL aliquots and the slurry was sonicated. […] Solubility was assessed in DMSO, dichloromethane, and 33% methanol in dichloromethane (FIGS. 9, 10, and 11, respectively).

[5] = Aqueous solubility in pH 7.4 PBS by LC-MS; assay type: physicochemical; details: phosphate buffered saline, pH 7.4, aqueous buffer, thermodynamic from solid, PBS pH 7.4; Table 4.3
Description: The aqueous solubility of DNQ at pH 7.4 in phosphate buffered saline (PBS) was measured by LC-MS. DNQ was sonicated for 30 minutes in PBS then undissolved solid was removed by filtration through a 0.45 μm syringe filter and the filtrate was analyzed by LC-MS (λ=275 nm, ESI-TOF in negative mode). The optimal sonication time was determined by sonicating DNQ for 1, 5, 10, and 30 minutes. While the concentration of DNQ in solution increased substantially between 1, 5, and 10 minutes, there was only a minor difference between 10 and 30 minutes. During the 30 minute sonication the water bath warmed to 45° C. (samples were cooled to room temperature before filtration). A calibration curve was generated from 1-100 μM by dissolving DNQ in methanol to a concentration of 500 μM and making dilutions of this stock in 80:20 water:methanol. The calibration curve (measure by UV absorbance) was linear over this range; 1 μM was approximately the limit of detection. […] The solution was very pale yellow.
The aqueous solubility of the compounds was determined by an LC-MS assay as described in the specification above. We applied the calibration curve generated for DNQ to the derivatives under the assumption that the UV profile of the derivatives of DNQ would be similar to that of DNQ.
After sonication and filtration most of the aqueous solutions were colorless. The solutions of DNQ, 4-31, and 4-37 were faintly yellow while 4-8, 4-14 and 4-41 were substantially more colored. The solution of 4-8, 4-14 and 4-41 were diluted 10-fold with PBS prior to LC-MS analysis to ensure that the concentrations fell within the range of the calibration curve.

PAR-PARP1 = assay: PARP1 hyperactivation (PAR-PARP1 formation) in vivo in orthotopic Lewis Lung Carcinoma model, immunoblotting; set-up: species or system NOD/SCID mice; details: iv at or near MTD
Description: Antibodies that specifically detect poly(ADP-ribosyl)ated α-PAR (BD Pharmingen, San Jose, Calif.) proteins (e.g., the most abundant species, poly(ADP-ribosyl)ated PARP1, PAR-PARP1) and α-PARP1 (sc-8007, Santa Cruz Biotechnology) antibodies were used at 1:4000 and 1:2000 dilutions, respectively. α-Tubulin was monitored for loading.
To generate a known control to monitor the formation of poly(ADP-ribose)ylated-polymerase 1 (PAR-PARP1) in cells, LLC tumor cells were treated in vitro with hydrogen peroxide (H2O2, 0.5 μM) for 15 minutes, and whole cell protein lysates were separated by SDS-PAGE using the α-PAR (BD Pharmingen, San Jose, Calif.) antibody described above. PAR-PARP1 formation was then assessed by immunoblot analyses as previously described in Huang et al., Cancer Research, 2012.
LLC cells (1.0×10^6) were intravenously (iv) injected into the tail veins of female 18-20 gram NOD/SCID mice. Establishment of tumor nodules in the lungs of exposed mice were confirmed by bioluminescence and mice (5/group) were treated intravenously (via tail vein injection) with: (i) hydroxypropyl-beta-cyclodextrin (HPRCD) vehicle alone; (ii) DNQ (7.5 mg/kg); (ii) DNQ-87 (14 mg/kg); (iii) DNQ-107 (10 mg/kg); or (vi) DNQ 9-251 (20 mg/kg) dissolved in HPRCD. At specific times indicated (in mins) after injection of vehicle or drug, mice were euthanized, lungs removed and tumor nodules harvested. […] Extracts from cells treated with H2O2 were used as controls for monitoring PAR-PARP1 formation in LLC tumor cells.

[6] = cited from earlier work
rats = details: cited from earlier work
[7] = pH 7.4 PBS; cited from earlier work
NQO1+ cells = details: in vitro; cited from earlier work
[8] = reported; cited from earlier work
[9] = 20% HPβCD in H2O; cited from earlier work
[10] = Homo sapiens, MCF7, Table 1, read-out: MCF7 IC50
[11] = Homo sapiens, MCF7, classification in figure legends of FIGS. 7-11, read-out: IC50 ("active" / generally "inactive" compounds)
[12] = 2:1 CH2Cl2:MeOH, Table 4.3, read-out: Solubility in 2:1 CH2Cl2:MeOH
[13] = CH2Cl2:MeOH 2:1, Table 1, read-out: CH2Cl2:MeOH 2:1 solubility
[14] = CH2Cl2, Table 1, read-out: CH2Cl2 solubility
[15] = DMSO, Table 1, read-out: DMSO solubility

Compound | NQO1 Initial Velocity @ 1 μM (NQO1) | IC50 (MCF-7 cells; [10]) [nM] | IC50 (MCF-7 cells; [11]) [nM] | Fold Protection of MCF7 cells w/ 25 μM dicoumarol (MCF-7 cells; Table 1) | solubility [2] [mM] | solubility [3] [mM] | Solubility in CH2Cl2 ([4]; CH2Cl2, Table 4.3) [mM] | Solubility in DMSO ([4]; DMSO, Table 4.3) [mM] | solubility [4, 12] [mM] | solubility [4, 13] [mM] | solubility [4, 14] [mM] | solubility [4, 15] [mM] | solubility at 30 min [5] [mM] | PAR-PARP1 formation in tumor tissue (PAR-PARP1) | also measured
Cc1cc(=O)[nH]c2c1C(=O)c1c(C)cc(=O)n(CCC(C)(C)C)c1C2=O [Compound 9-251] | 2000 ± 100 | 190 ± 20 | < 500 | 8 | 23 (≈ 8150 µg/mL) | 19 (≈ 6730 µg/mL) | 31 (≈ 11000 µg/mL) | 15 (≈ 5320 µg/mL) | 120 (≈ 42500 µg/mL) | 120 (≈ 42500 µg/mL) | 31 (≈ 11000 µg/mL) | 15 (≈ 5320 µg/mL) | 0.007 (≈ 2.48 µg/mL) | higher levels of PAR-PARP1 formation | tolerated concentration relative to DNQ (healthy mice): 3.5 fold; MTD at 5 days ([1]; in vivo): 22 mg/kg and 62 µmol/kg; IC50 (MCF-7 cells; Homo sapiens, MCF7, Table 4.2, no DIC, ± s.e., read-out: IC50 vs. MCF-7 cells): 220 ± 40 nM; IC50 (MCF-7 cells; Homo sapiens, MCF7, read-out: IC50 vs. MCF-7 cells +25 μM DIC, Table 4.2, +25 μM DIC, ± s.e.): 1600 ± 600 nM; Fold protection by DIC (MCF-7 cells; Table 4.2): 7.1; fold increase in solubility in HPβCD over PBS alone [3]: 3000 fold
2-hydroxypropyl-beta-cyclodextrin [HPβCD] |  |  |  |  |  |  |  |  |  |  |  |  |  |  | tolerated dose by IP injection [6]: > 5000 mg/kg; MTD by IV injection (rats): approximately 2.25 g/kg
CC1(C)CCC2=C(O1)c1ccccc1C(=O)C2=O [β-lap, β-lapachone, reference compound] | 150 |  |  | 2.1 |  |  |  |  |  |  |  |  |  |  | aqueous solubility [7]: ~0.16 mM (≈ 38.8 µg/mL); IC50 (MCF-7 cells; Table 1, read-out: MCF7 IC50): 3700 nM; LD50 (NQO1+ cells): 2 to 10 µM; THF solubility [2]: 660 mM; time to complete degradation in whole blood [8]: ≤ 30 min; CH2Cl2:MeOH 2:1 solubility ([4]; CH2Cl2:MeOH 2:1, Table 1): 1400 mM; CH2Cl2 solubility ([4]; CH2Cl2, Table 1): 1650 mM; DMSO solubility ([4]; DMSO, Table 1): 170 mM; fold increase in solubility in HPβCD [9]: ~150 fold
CCc1cc(=O)n(C)c2c1C(=O)c1c(C)cc(=O)[nH]c1C2=O [Compound 107] | 1400 ± 100 | 280 | < 500 | 4.5 | 4.7 (≈ 1400 µg/mL) | 4.4 (≈ 1310 µg/mL) | 5.5 (≈ 1640 µg/mL) | 31 (≈ 9250 µg/mL) | 37 (≈ 11000 µg/mL) | 37 (≈ 11000 µg/mL) | 5.5 (≈ 1640 µg/mL) | 31 (≈ 9250 µg/mL) | 0.439 (≈ 131 µg/mL) | higher levels of PAR-PARP1 formation | MTD at 5 days [1]: ≤ 10 mg/kg and ≤ 35 µmol/kg; IC50 (MCF-7 cells; Homo sapiens, MCF7, 2 h, Table 4.1, 2 h exposure, no DIC, ± s.e., read-out: IC50 vs. MCF-7 cells): 280 ± 60 nM; IC50 (MCF-7 cells; Homo sapiens, MCF7, read-out: IC50 vs. MCF-7 cells +25 μM DIC, Table 4.1, +25 μM DIC, ± s.e.): 1300 ± 400 nM; Fold protection by DIC (MCF-7 cells; Table 4.1): 4.5
